Test results: US5147878A, “Aminoalkoxyphenyl derivatives, process of preparation and compositions containing the same” (Sanofi, priority 1986, dated 1992)
“And” between values parts separate entries of the source, which are not always exact repeats. Equal entries are not always repeated. Structures can show the parent of a compound that is named as a salt.

Assays:
[1] = Acute toxicity, intravenous, Litchfield and Wilcoxon; conditions: mouse, in vivo, mice
Procedure: The acute toxicity of the compounds of the invention was determined intravenously in mice according to the method of Litchfield and Wilcoxon (J. Pharm. Exp. Therap. […], 96, 99).
The following results were obtained, expressed in the form of the LD50, compared with a benzoylindolizine derivative, in this case 2-ethyl-3-{4-[3-(di-n-butylamino)propyloxy]benzoyl}indolizine or butoprozine.

isolated rat aorta = assay: Calcium inhibitory properties: contractile response to potassium-induced depolarization on isolated rat aorta; design: species or system isolated organ, male Wistar rats; conditions: for activity at 1 µM: 10^-6 M; for activity at 0.001 µM: 10^-9 M; for % of the maximum contractional effect: 60 min
How it was run: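 Contraction is expressed as % of the pre-incubation maximum, measured after a 60 min compound exposure and a fresh K+ (100 mM KCl) depolarization. Tissue: aortic strips from male Wistar rats, 2 g tension, modified Krebs-bicarbonate, 37° C, CO2/O2 gassed.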

[2] = test system: isoprenaline-induced acceleration in heart rate (anti-β effect); assay: Antiadrenergic properties: anti-β effect (reduction of isoprenaline-induced tachycardia); format: in vivo; conditions: dog; for inhibition in vivo at 1.3 mg/kg: 1.3 mg/kg i.v.; for inhibition in vivo at 0.13 mg/kg: 0.13 mg/kg i.v.; for inhibition in vivo at 3 mg/kg: 3 mg/kg i.v.
Procedure: The object of this test is to determine the capacity of the compounds of the invention for reducing the increase in epinephrine-induced increase in blood-pressure (anti-α effect) and the isoprenaline-induced acceleration in heart rate (anti-β effect), in dogs previously anaesthatized with pentobarbital and atropinized. For each dog, the dose of epinephrine (between 3 and 10 μg/kg) which induced a reproducible increase in the blood-pressure of approximately 133×10^2 Pa and the dose of isoprenaline (1 to 2 μg/kg) which induced a reproducible increase in the heart rate of approximately 70 beats/min. were first determined. The dose of epinephrine and of isoprenaline, determined in this manner, were injected alternately every ten minutes and, after two successive reference responses had been obtained, an amount of the test compound was administered intravenously. The percentage reduction in the acceleration of the heart rate induced by the test compound compared with the reference tachycardia measured previously (approximately 70 beats) was recorded. In both cases, the results of the reduction in blood-pressure or in the heart rate have been expressed as follows: […]

[3] = test system: epinephrine-induced increase in blood-pressure (anti-α effect); assay: Antiadrenergic properties: anti-α effect (reduction of epinephrine-induced hypertension); format: in vivo; design: key to anti-α effect: +: for a reduction < 50%; ++: for a reduction ≥ 50%; +++: for a reduction sub-total (almost complete reduction); conditions: dog
Procedure: The object of this test is to determine the capacity of the compounds of the invention for reducing the increase in epinephrine-induced increase in blood-pressure (anti-α effect) and the isoprenaline-induced acceleration in heart rate (anti-β effect), in dogs previously anaesthatized with pentobarbital and atropinized. For each dog, the dose of epinephrine (between 3 and 10 μg/kg) which induced a reproducible increase in the blood-pressure of approximately 133×10^2 Pa and the dose of isoprenaline (1 to 2 μg/kg) which induced a reproducible increase in the heart rate of approximately 70 beats/min. were first determined. The dose of epinephrine and of isoprenaline, determined in this manner, were injected alternately every ten minutes and, after two successive reference responses had been obtained, an amount of the test compound was administered intravenously. The percentage reduction in the hypertension induced by the test compound compared with the reference hypertension previously obtained (approximately 100 mm Hg) was recorded. In both cases, the results of the reduction in blood-pressure or in the heart rate have been expressed as follows: […]

[4] = Rattus norvegicus, 1 h, read-out: % of the maximum contractional effect
[5] = Rattus norvegicus, 1 h, 10^-7 M, read-out: % of the maximum contractional effect
[6] = Rattus norvegicus, 1 h, 10^-8 M, read-out: % of the maximum contractional effect
[7] = Canis lupus familiaris, iv, 0.12 mg/kg i.v.
[8] = Canis lupus familiaris, iv, 0.52 mg/kg i.v.
[9] = Canis lupus familiaris, iv, 0.027 mg/kg i.v.

Row | Compound | activity at 1 µM (isolated rat aorta; [4]) [%] | activity at 0.1 µM (isolated rat aorta; [5]) [%] | activity at 0.01 µM (isolated rat aorta; [6]) [%] | activity at 0.001 µM (isolated rat aorta; [4]) [%] | further results
1 | CCCCN(CCCC)CCCOc1ccc(C(=O)c2c(CC)cc3ccccn23)cc1 [Butoprozine, 2-ethyl-3-{4-[3-(di-n-butylamino)propyloxy]benzoyl}indolizine, reference compound] |  |  |  |  | LD50 [1]: 23 mg/kg
2 | CCCCN(CCCC)CCCOc1ccc(S(=O)(=O)c2c(C)cn3ccccc23)cc1.O=C(O)C(=O)O [Ex. 6, 2-Methyl-1-{4-[3-(di-n-butylamino)propyloxy]benzenesulphonyl}indolizine oxalate] | 13.9 | 69.1 |  |  | LD50 [1]: 31 mg/kg
3 | CCCCN(CCCC)CCCOc1ccc(S(=O)(=O)c2c(-c3ccccc3)cn3ccccc23)cc1.Cl [Ex. 18, 2-Phenyl-1-{4-[3-(di-n-butylamino)propyloxy]benzenesulphonyl}indolizine hydrochloride] | 55.6 |  |  |  | LD50 [1]: 35 mg/kg
4 | COc1ccc(CCN(C)CCCOc2ccc(S(=O)(=O)c3c(C(C)C)oc4ccccc34)cc2)cc1OC [Ex. 66, 2-isopropyl-3-[4-{3-[N-methyl-N-(3,4-dimethoxy-β-phenethylamino]propyloxy}benzenesulphonylbenzofuran oxalate] | 2.6 | 19.7 | 60.4 | 81.7 | inhibition in vivo at 0.1 mg/kg ([2]; Canis lupus familiaris, iv, 0.1 mg/kg i.v.): < 50%; anti-α effect ([3]; 0.1 mg/kg i.v.): +++
5 | CCCc1oc2ccccc2c1S(=O)(=O)c1ccc(OCCCN(C)CCc2ccc(OC)c(OC)c2)cc1 [Ex. 67, 2-n-Propyl-3-[4-{3-[N-methyl-N-(3,4-dimethoxy-β-phenethyl)amino]propyloxy}benzenesulphonyl]benzofuran oxalate] | 9.3 | 38.3 | 80.9 |  | inhibition in vivo at 1.3 mg/kg ([2]; Canis lupus familiaris, iv): < 50%; anti-α effect ([3]; 1.3 mg/kg i.v.): +++
6 | CCCc1sc2ccccc2c1S(=O)(=O)c1ccc(OCCCN(C)CCc2ccc(OC)c(OC)c2)cc1 [Ex. 68, 2-n-Propyl-3-[4-{3-[N-methyl-N-(3,4-dimethoxy-β-phenethyl)amino]propyloxy}benzenesulphonyl]benzothiophene hemioxalate] | 9.7 | 45.3 | 68.9 |  | inhibition in vivo at 0.6 mg/kg ([2]; Canis lupus familiaris, iv, 0.6 mg/kg i.v.): ≥ 50%; anti-α effect ([3]; 0.6 mg/kg i.v.): +++
7 | CCCCc1oc2ccccc2c1S(=O)(=O)c1ccc(OCCCN(C)CCc2ccc(OC)c(OC)c2)cc1 [Ex. 69, 2-n-butyl-3-[4-{3-[N-methyl-N-(3,4-dimethoxy-β-phenethyl)amino]propyloxy}benzenesulphonyl]benzofuran hydrochloride] | 36.8 | 59 | 76 |  | anti-β effect ([2]; 1.2 mg/kg i.v.): + +; anti-α effect ([3]; 1.2 mg/kg i.v.): +++
8 | CCCCN(CCCC)CCCOc1ccc(S(=O)(=O)c2c(C(C)C)nn3ccccc23)cc1 [Ex. 70, 2-isopropyl-3-{4-[3-(di-n-butylamino)propyloxy]benzenesulphonyl}pyrazolo[1,5-a]pyridine oxalate] | 0 | 18.9 | 83 |  | inhibition in vivo at 0.12 mg/kg [2, 7]: < 50%; inhibition in vivo at 0.12 mg/kg [3, 7]: ≥ 50%
9 | COc1ccc(CCN(C)CCCOc2ccc(S(=O)(=O)c3c(C(C)C)nn4ccccc34)cc2)cc1OC [Ex. 71, 2-isopropyl-3-[4-{3-[N-methyl-N-(3,4-dimethoxy-β-phenethyl)amino]propyloxy}benzenesulphonyl]pyrazolo(1,5-a]pyridine oxalate] | 0 | 15.1 | 67.1 | 84.9 | inhibition in vivo at 0.13 mg/kg ([2]; Canis lupus familiaris, iv): ≥ 50%; anti-α effect ([3]; 0.13 mg/kg i.v.): +++
10 | CC(C)c1nn2ccccc2c1S(=O)(=O)c1ccc(OCCCNC(C)(C)C)cc1 [Ex. 72, 2-isopropyl-3-{4-[3-(tertiobutylamino)propyloxy]benzenesulphonyl}pyrazolo[1,5-a]pyridine oxalate] | 13.2 | 66.5 | 84 |  | inhibition in vivo at 0.52 mg/kg [2, 8]: < 50%; inhibition in vivo at 0.52 mg/kg [3, 8]: ≥ 50%
11 | COc1ccc(CCN(C)CCCOc2ccc(S(=O)(=O)C3=C(C(C)C)OCC3)cc2)cc1OC [Ex. 73, 2-isopropyl-3-[4-{3-[N-methyl-N-(3,4-dimethoxy-β-phenethyl)amino]propyloxy}benzenesulphonyl]-4,5-dihydro-furan oxalate] | 8.2 | 66.7 | 78.3 |  | inhibition in vivo at 3 mg/kg ([2]; Canis lupus familiaris, iv): ≥ 50%; anti-α effect ([3]; 3 mg/kg i.v.): +++
12 | CCCCN(CCCC)CCCOc1ccc(S(=O)(=O)c2cc3ccccc3nc2C(C)C)cc1.O=C(O)C(=O)O [Ex. 74, 2-isopropyl-3-{4-[3-(di-n-butylamino)propyloxy]benzenesulphonyl}quinoline oxalate] | 22.4 | 67.3 |  |  | inhibition in vivo at 1.2 mg/kg ([2]; Canis lupus familiaris, iv, 1.2 mg/kg i.v.): < 50%; anti-α effect ([3]; 1.2 mg/kg i.v.): +++
13 | COc1ccc(CCN(C)CCCOc2ccc(S(=O)(=O)c3cc4ccccc4nc3C(C)C)cc2)cc1OC [Ex. 75, 2-isopropyl-3-[4-{3-[N-methyl-N-(3,4-dimethoxy-β-phenethyl)amino]propyloxy}benzenesulphonyl]quinoline oxalate] |  |  | 89.7 |  | % of the maximum contractional effect (isolated rat aorta; 10^-7 M, 0.1 µM): 54% and 79.6%; inhibition in vivo at 1.3 mg/kg ([2]; Canis lupus familiaris, iv): < 50%; anti-α effect ([3]; 1.3 mg/kg i.v.): +++
14 | COc1ccc(CCN(C)CCCOc2ccc(S(=O)(=O)c3c(C(C)C)cn4ncccc34)cc2)cc1OC [Ex. 76, 5-[4-{3-[N-methyl-N-(3,4-dimethoxy-β-phenethyl)amino]propyloxy}benzenesulphonyl]-6-isopropyl-pyrrolo[1,2-b]pyridazine oxalate] |  | 0 | 18.1 | 68.1 | inhibition in vivo at 0.13 mg/kg ([2]; Canis lupus familiaris, iv): < 50%; anti-α effect ([3]; 0.13 mg/kg i.v.): +++
15 | COc1ccc(CCN(C)CCCOc2ccc(S(=O)(=O)c3ccoc3C(C)C)cc2)cc1OC [Ex. 77, 2-isopropyl-3-[4-{3-[N-methyl-N-(3,4-dimethoxy-β-phenethyl)amino]propyloxy}benzenesulphonyl]furan oxalate] |  | 43.2 | 86 | 89.8 | inhibition in vivo at 3 mg/kg ([2]; Canis lupus familiaris, iv): ≥ 50%; anti-α effect ([3]; 3 mg/kg i.v.): +++
16 | COc1cc(CCNCCCOc2ccc(S(=O)(=O)c3c(C(C)C)cn4ccccc34)cc2)cc(OC)c1 [Ex. 133, 1-[4-{3-[N-(3,5-dimethoxy-β-phenethyl)amino]propyloxy}benzenesulphonyl]-2-isopropyl-indolizine acid oxalate] |  | 6.2 | 30.5 | 73.4 | % of the maximum contractional effect (isolated rat aorta; 10^-8 M, 0.01 µM): 30.3%; inhibition in vivo at 0.027 mg/kg [2, 9]: < 50%; inhibition in vivo at 0.027 mg/kg [3, 9]: ≥ 50%
17 | COc1cc(CCN(C)CCCOc2ccc(S(=O)(=O)c3c(C(C)C)cn4ccccc34)cc2)cc(OC)c1 [Ex. 145, 2-isopropyl-1[4-{3-[N-methyl-N-(3,5-dimethoxy-β-phenethyl)amino]propyloxy}benzenesulphonyl]indolizine acid oxalate] |  |  | 21 | 57.7 | activity at 0.0001 µM (isolated rat aorta; Rattus norvegicus, 1 h, 10^-10 M, read-out: % of the maximum contractional effect): 81%; inhibition in vivo at 0.033 mg/kg ([2]; Canis lupus familiaris, iv, 0.033 mg/kg i.v.): ≥ 50%; anti-α effect ([3]; 0.033 mg/kg i.v.): +++
